Results: paper PMC11079024, “Identification of a family of species-selective complex I inhibitors as potential anthelmintics” (Nature Communications, 2024)

What follows are compounds tested on L1 wild-type C. elegans (assay: microbe, parasite or virus in culture). Details: Caenorhabditis elegans, read-out: C. elegans KCN Survival Assay LC50, estimated from fitted dose-response curves; mean of at least two biological replicates.

| SMILES | LC50 [µM] |
| --- | --- |
| Clc1ccc(Cn2cnc3ccccc32)c(Cl)c1 [Compound 6750659] | 4.28 |
| C=CCn1c(C(C)c2ccc(CC(C)C)cc2)nc2ccccc21 (stereo not shown) [STL020755] | 9.97 |
| Cc1nc2ccccc2n1Cc1ccc(Cl)c(Cl)c1 [Compound 5655567] | 8.26 |
| Clc1ccc(Cn2cnc3ccccc32)cc1Cl [Compound 5571325] | 13.1 |
| Cc1nc2ccccc2n1Cc1ccccc1Cl [Compound 6707368] | 8.24 |
| Brc1ccccc1OCCCCn1cnc2ccccc21 [Compound 7924576] | 6.73 |

These compounds were tested against B. taurus (heart) complex I (Bos taurus, UniProt P03887+P17694+P42026) (assay: biochemical). Details: B. taurus heart mitochondria; estimated from fitted dose-response curves; read-out: B. taurus Complex I IC50.
Assay type: biochemical
How it was run: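 Complex I activity followed as DCIP reduction (600 nm, 30 s reads, 15 min) with 80 μM NADH and 60 μM decylubiquinone in 25 mM KPi pH 7.5 containing 2 μM antimycin A and 2 mM KCN. Freeze-thawed mouse or bovine heart mitochondria at 0.2 mg/mL; initial-rate percent of solvent control, single-point 100 μM or dose-response.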

Sequence of B. taurus (heart) complex I (P03887 whole entry): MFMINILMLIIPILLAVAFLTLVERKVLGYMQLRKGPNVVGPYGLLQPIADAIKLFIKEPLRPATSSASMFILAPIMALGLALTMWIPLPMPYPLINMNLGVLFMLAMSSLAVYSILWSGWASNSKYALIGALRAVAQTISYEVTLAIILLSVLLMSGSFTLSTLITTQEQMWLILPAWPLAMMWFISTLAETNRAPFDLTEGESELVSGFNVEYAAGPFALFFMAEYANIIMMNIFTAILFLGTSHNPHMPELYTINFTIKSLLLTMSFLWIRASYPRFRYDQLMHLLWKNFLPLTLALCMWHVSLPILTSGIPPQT
Sequence of B. taurus (heart) complex I (P17694 34-463): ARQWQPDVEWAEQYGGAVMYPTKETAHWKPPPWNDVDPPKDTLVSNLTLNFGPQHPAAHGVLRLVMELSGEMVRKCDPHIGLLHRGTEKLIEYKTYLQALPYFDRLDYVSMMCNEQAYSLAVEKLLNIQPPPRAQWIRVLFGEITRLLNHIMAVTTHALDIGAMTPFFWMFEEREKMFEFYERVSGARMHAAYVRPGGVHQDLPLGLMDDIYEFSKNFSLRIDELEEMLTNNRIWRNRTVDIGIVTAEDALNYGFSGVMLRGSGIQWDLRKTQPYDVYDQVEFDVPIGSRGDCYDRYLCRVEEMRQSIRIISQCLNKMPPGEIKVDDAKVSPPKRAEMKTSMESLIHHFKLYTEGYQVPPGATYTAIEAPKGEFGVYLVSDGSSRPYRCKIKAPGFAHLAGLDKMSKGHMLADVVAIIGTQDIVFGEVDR
Sequence of B. taurus (heart) complex I (P42026 38-216): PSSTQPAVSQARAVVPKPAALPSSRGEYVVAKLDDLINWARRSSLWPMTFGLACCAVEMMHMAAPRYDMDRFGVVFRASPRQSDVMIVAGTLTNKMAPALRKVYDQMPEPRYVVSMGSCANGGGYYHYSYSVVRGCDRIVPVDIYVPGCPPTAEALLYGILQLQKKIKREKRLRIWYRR

| SMILES | IC50 [µM] |
| --- | --- |
| Clc1ccc(Cn2cnc3ccccc32)c(Cl)c1 [Compound 6750659] | 2.6 |
| C=CCn1c(C(C)c2ccc(CC(C)C)cc2)nc2ccccc21 (stereo not shown) [STL020755] | 16.8 |
| Cc1nc2ccccc2n1Cc1ccc(Cl)c(Cl)c1 [Compound 5655567] | 1.17 |
| Cc1nc2ccccc2n1Cc1ccccc1Cl [Compound 6707368] | 3.96 |
| Brc1ccccc1OCCCCn1cnc2ccccc21 [Compound 7924576] | 1.14 |

Same assay, conditions: B. taurus heart mitochondria; read-out: B. taurus Complex I IC50

| SMILES | IC50 [µM] |
| --- | --- |
| Clc1ccc(Cn2cnc3ccccc32)cc1Cl [Compound 5571325] | 11.5 |

Same assay, conditions: Dose 0.0001 µM; read-out: B. taurus mitochondrial complex I activity

| SMILES | activity at 0.0001 µM [%] |
| --- | --- |
| Clc1ccc(Cn2cnc3ccccc32)c(Cl)c1 [Compound 6750659] | 93.1 |
| Cc1nc2ccccc2n1Cc1ccc(Cl)c(Cl)c1 [Compound 5655567] | 91.2 |
| Clc1ccc(Cn2cnc3ccccc32)cc1Cl [Compound 5571325] | 97.2 |
| Brc1ccccc1OCCCCn1cnc2ccccc21 [Compound 7924576] | 104 |

Same assay, conditions: Dose 0.0005 µM; read-out: B. taurus mitochondrial complex I activity

| SMILES | activity at 0.0005 µM [%] |
| --- | --- |
| Clc1ccc(Cn2cnc3ccccc32)c(Cl)c1 [Compound 6750659] | 93.8 |
| Cc1nc2ccccc2n1Cc1ccc(Cl)c(Cl)c1 [Compound 5655567] | 90.2 |
| Clc1ccc(Cn2cnc3ccccc32)cc1Cl [Compound 5571325] | 100 |
| Brc1ccccc1OCCCCn1cnc2ccccc21 [Compound 7924576] | 101 |

Same assay, conditions: Dose 0.001 µM; read-out: B. taurus mitochondrial complex I activity

| SMILES | activity at 0.001 µM [%] |
| --- | --- |
| Clc1ccc(Cn2cnc3ccccc32)c(Cl)c1 [Compound 6750659] | 91.7 |
| Cc1nc2ccccc2n1Cc1ccc(Cl)c(Cl)c1 [Compound 5655567] | 95.5 |
| Clc1ccc(Cn2cnc3ccccc32)cc1Cl [Compound 5571325] | 100 |
| Brc1ccccc1OCCCCn1cnc2ccccc21 [Compound 7924576] | 108 |

Same assay, conditions: Dose 0.0025 µM; read-out: B. taurus mitochondrial complex I activity

| SMILES | activity at 0.0025 µM [%] |
| --- | --- |
| Clc1ccc(Cn2cnc3ccccc32)c(Cl)c1 [Compound 6750659] | 100 |
| Cc1nc2ccccc2n1Cc1ccc(Cl)c(Cl)c1 [Compound 5655567] | 94.9 |
| Clc1ccc(Cn2cnc3ccccc32)cc1Cl [Compound 5571325] | 99.4 |
| Brc1ccccc1OCCCCn1cnc2ccccc21 [Compound 7924576] | 104 |

Same assay, conditions: Dose 0.005 µM; read-out: B. taurus mitochondrial complex I activity

| SMILES | activity at 0.005 µM [%] |
| --- | --- |
| Clc1ccc(Cn2cnc3ccccc32)c(Cl)c1 [Compound 6750659] | 91.7 |
| Cc1nc2ccccc2n1Cc1ccc(Cl)c(Cl)c1 [Compound 5655567] | 95.5 |
| Clc1ccc(Cn2cnc3ccccc32)cc1Cl [Compound 5571325] | 97.3 |
| Brc1ccccc1OCCCCn1cnc2ccccc21 [Compound 7924576] | 101 |

Same assay, conditions: Dose 0.013 µM; read-out: B. taurus mitochondrial complex I activity

| SMILES | activity at 0.013 µM [%] |
| --- | --- |
| Clc1ccc(Cn2cnc3ccccc32)c(Cl)c1 [Compound 6750659] | 94.7 |
| Cc1nc2ccccc2n1Cc1ccc(Cl)c(Cl)c1 [Compound 5655567] | 85.5 |
| Clc1ccc(Cn2cnc3ccccc32)cc1Cl [Compound 5571325] | 88.2 |
| Brc1ccccc1OCCCCn1cnc2ccccc21 [Compound 7924576] | 102 |

Same assay, conditions: Dose 0.025 µM; read-out: B. taurus mitochondrial complex I activity

| SMILES | activity at 0.025 µM [%] |
| --- | --- |
| Clc1ccc(Cn2cnc3ccccc32)c(Cl)c1 [Compound 6750659] | 92.7 |
| Cc1nc2ccccc2n1Cc1ccc(Cl)c(Cl)c1 [Compound 5655567] | 82.4 |
| Clc1ccc(Cn2cnc3ccccc32)cc1Cl [Compound 5571325] | 96.9 |
| Brc1ccccc1OCCCCn1cnc2ccccc21 [Compound 7924576] | 102 |

Same assay, conditions: Dose 0.063 µM; read-out: B. taurus mitochondrial complex I activity

| SMILES | activity at 0.063 µM [%] |
| --- | --- |
| Clc1ccc(Cn2cnc3ccccc32)c(Cl)c1 [Compound 6750659] | 89.8 |
| Cc1nc2ccccc2n1Cc1ccc(Cl)c(Cl)c1 [Compound 5655567] | 79.8 |
| Clc1ccc(Cn2cnc3ccccc32)cc1Cl [Compound 5571325] | 95.3 |
| Brc1ccccc1OCCCCn1cnc2ccccc21 [Compound 7924576] | 96.3 |

Same assay, conditions: Dose 0.125 µM; read-out: B. taurus mitochondrial complex I activity

| SMILES | activity at 0.125 µM [%] |
| --- | --- |
| Clc1ccc(Cn2cnc3ccccc32)c(Cl)c1 [Compound 6750659] | 83.5 |
| Cc1nc2ccccc2n1Cc1ccc(Cl)c(Cl)c1 [Compound 5655567] | 78.8 |
| Clc1ccc(Cn2cnc3ccccc32)cc1Cl [Compound 5571325] | 96 |
| Brc1ccccc1OCCCCn1cnc2ccccc21 [Compound 7924576] | 84.6 |

Same assay, conditions: Dose 0.313 µM; read-out: B. taurus mitochondrial complex I activity

| SMILES | activity at 0.313 µM [%] |
| --- | --- |
| Clc1ccc(Cn2cnc3ccccc32)c(Cl)c1 [Compound 6750659] | 77.1 |
| Cc1nc2ccccc2n1Cc1ccc(Cl)c(Cl)c1 [Compound 5655567] | 62.7 |
| Clc1ccc(Cn2cnc3ccccc32)cc1Cl [Compound 5571325] | 92.8 |
| Brc1ccccc1OCCCCn1cnc2ccccc21 [Compound 7924576] | 74.3 |

Same assay, conditions: Dose 0.625 µM; read-out: B. taurus mitochondrial complex I activity

| SMILES | activity at 0.625 µM [%] |
| --- | --- |
| Clc1ccc(Cn2cnc3ccccc32)c(Cl)c1 [Compound 6750659] | 78.3 |
| Cc1nc2ccccc2n1Cc1ccc(Cl)c(Cl)c1 [Compound 5655567] | 60.2 |
| Clc1ccc(Cn2cnc3ccccc32)cc1Cl [Compound 5571325] | 96.3 |
| Brc1ccccc1OCCCCn1cnc2ccccc21 [Compound 7924576] | 68 |

Same assay, conditions: Dose 1.5 µM; read-out: B. taurus mitochondrial complex I activity

| SMILES | activity at 1.5 µM [%] |
| --- | --- |
| Clc1ccc(Cn2cnc3ccccc32)c(Cl)c1 [Compound 6750659] | 60.6 |
| Cc1nc2ccccc2n1Cc1ccc(Cl)c(Cl)c1 [Compound 5655567] | 41.5 |
| Clc1ccc(Cn2cnc3ccccc32)cc1Cl [Compound 5571325] | 89.7 |
| Brc1ccccc1OCCCCn1cnc2ccccc21 [Compound 7924576] | 44.1 |

Same assay, conditions: Dose 3 µM; read-out: B. taurus mitochondrial complex I activity

| SMILES | activity at 3 µM [%] |
| --- | --- |
| Clc1ccc(Cn2cnc3ccccc32)c(Cl)c1 [Compound 6750659] | 42.8 |
| Cc1nc2ccccc2n1Cc1ccc(Cl)c(Cl)c1 [Compound 5655567] | 23.2 |
| Clc1ccc(Cn2cnc3ccccc32)cc1Cl [Compound 5571325] | 83.9 |
| Brc1ccccc1OCCCCn1cnc2ccccc21 [Compound 7924576] | 32 |

Same assay, conditions: Dose 15 µM; read-out: B. taurus mitochondrial complex I activity

| SMILES | activity at 15 µM [%] |
| --- | --- |
| Clc1ccc(Cn2cnc3ccccc32)c(Cl)c1 [Compound 6750659] | 8.04 |
| Cc1nc2ccccc2n1Cc1ccc(Cl)c(Cl)c1 [Compound 5655567] | 1.19 |
| Clc1ccc(Cn2cnc3ccccc32)cc1Cl [Compound 5571325] | 36 |
| Brc1ccccc1OCCCCn1cnc2ccccc21 [Compound 7924576] | 6.52 |

Same assay, conditions: Dose 37.5 µM; read-out: B. taurus mitochondrial complex I activity

| SMILES | activity at 37.5 µM [%] |
| --- | --- |
| Clc1ccc(Cn2cnc3ccccc32)c(Cl)c1 [Compound 6750659] | 1.6 |
| Cc1nc2ccccc2n1Cc1ccc(Cl)c(Cl)c1 [Compound 5655567] | 0.14 |
| Clc1ccc(Cn2cnc3ccccc32)cc1Cl [Compound 5571325] | 5.23 |
| Brc1ccccc1OCCCCn1cnc2ccccc21 [Compound 7924576] | 3.45 |

Same assay, conditions: Dose 75 µM; read-out: B. taurus mitochondrial complex I activity

| SMILES | activity at 75 µM [%] |
| --- | --- |
| Clc1ccc(Cn2cnc3ccccc32)c(Cl)c1 [Compound 6750659] | 1.94 |
| Cc1nc2ccccc2n1Cc1ccc(Cl)c(Cl)c1 [Compound 5655567] | 0.62 |
| Clc1ccc(Cn2cnc3ccccc32)cc1Cl [Compound 5571325] | 1.54 |
| Brc1ccccc1OCCCCn1cnc2ccccc21 [Compound 7924576] | 3.05 |

Same assay, conditions: log10 of IC50 in µM; B. taurus mitochondria

| SMILES | Log IC50 B. taurus complex I [µM] |
| --- | --- |
| Clc1ccc(Cn2cnc3ccccc32)c(Cl)c1 [Compound 6750659] | 0.41 |
| C=CCn1c(C(C)c2ccc(CC(C)C)cc2)nc2ccccc21 (stereo not shown) [STL020755] | 1.23 |
| Cc1nc2ccccc2n1Cc1ccc(Cl)c(Cl)c1 [Compound 5655567] | 0.07 |
| Clc1ccc(Cn2cnc3ccccc32)cc1Cl [Compound 5571325] | 1.06 |
| Cc1nc2ccccc2n1Cc1ccccc1Cl [Compound 6707368] | 0.60 |
| Brc1ccccc1OCCCCn1cnc2ccccc21 [Compound 7924576] | 0.0569 |

These compounds were tested on ben-1 mutant (ECA882) C. elegans (assay: microbe, parasite or virus in culture). Details: Caenorhabditis elegans, read-out: C. elegans (ben-1) Development & Viability Assay LC50.
How it was run: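 Development and viability scored from single well images as total worm pixels divided by the matching DMSO control value, mean of ≥3 replicates. Worms added as synchronized L1s to HB101 suspension in liquid NGM with compound (1% DMSO v/v), grown 6 days at 20 °C with shaking.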

| SMILES | LC50 [µM] |
| --- | --- |
| Clc1ccc(Cn2cnc3ccccc32)c(Cl)c1 [Compound 6750659] | 42.2 |
| C=CCn1c(C(C)c2ccc(CC(C)C)cc2)nc2ccccc21 (stereo not shown) [STL020755] | 285 |
| Cc1nc2ccccc2n1Cc1ccc(Cl)c(Cl)c1 [Compound 5655567] | 85.3 |
| Clc1ccc(Cn2cnc3ccccc32)cc1Cl [Compound 5571325] | 69.5 |
| Cc1nc2ccccc2n1Cc1ccccc1Cl [Compound 6707368] | 135 |
| Brc1ccccc1OCCCCn1cnc2ccccc21 [Compound 7924576] | 58.6 |

Same assay, conditions: Caenorhabditis elegans, read-out: C. elegans ben-1(e1880) development/viability

| SMILES | viability at 1 µM [%] | viability at 2 µM [%] | viability at 3.9 µM [%] | viability at 15.6 µM [%] | viability at 31.3 µM [%] | viability at 62.5 µM [%] | viability at 125 µM [%] | viability at 250 µM [%] | viability at 500 µM [%] | viability at 1000 µM [%] |
| --- | --- | --- | --- | --- | --- | --- | --- | --- | --- | --- |
| Cc1nc2ccccc2n1Cc1ccc(Cl)c(Cl)c1 [Compound 5655567] | 99.9 | 97.1 | 100 | 100 | 99.5 | 84.2 | 10.6 | 16.7 |  |  |
| Brc1ccccc1OCCCCn1cnc2ccccc21 [Compound 7924576] | 99.9 | 91.7 | 96.6 | 87.8 | 65.5 | 54 | 3.7 | 4.7 | 2.1 | 0.7 |

Same assay, conditions: Caenorhabditis elegans, read-out: C. elegans ben-1 log10 LC50 (converted)

| SMILES | LC50 [µM] |
| --- | --- |
| Clc1ccc(Cn2cnc3ccccc32)c(Cl)c1 [Compound 6750659] | 42.3 |
| C=CCn1c(C(C)c2ccc(CC(C)C)cc2)nc2ccccc21 (stereo not shown) [STL020755] | 284 |
| Cc1nc2ccccc2n1Cc1ccc(Cl)c(Cl)c1 [Compound 5655567] | 85.3 |
| Clc1ccc(Cn2cnc3ccccc32)cc1Cl [Compound 5571325] | 69.5 |
| Cc1nc2ccccc2n1Cc1ccccc1Cl [Compound 6707368] | 135 |
| Brc1ccccc1OCCCCn1cnc2ccccc21 [Compound 7924576] | 58.6 |
